Results reported in PMC12454639, “Direct disassembly of α-syn preformed fibrils into α-syn monomers by an all-D-peptide” (NPJ Parkinson's Disease, 2025).
Square brackets hold non-standard residues; d marks the D form. Peptide text beside a SMILES is read from it.

How the values were obtained:
small α-syn PFF seeds = test: Protein quantification after centrifugation (precipitation of small α-syn PFF); type: physicochemical; conditions: as DLS samples (200 nM PFF + 500 nM SVD-1a), 0, 20, 72 h at 37 °C, centrifuged 21,000×g 30 min, Micro-BCA, n = 3
Procedure: Measurements were performed using a SpectroSize 300 131 (XtalConcepts, GE) instrument and a sample volume of 1 ml in a sealed quartz cuvette (Hellma Group, GE). Samples were incubated in PBS pH 7.4 at 37 °C under quiescent conditions. Prior to measurements, all samples were centrifuged at 21,000×g for 30 min at 4 °C to remove potential impurities from the solution. For time-dependent DLS measurements, data points were recorded every 60 s. Diffusion coefficients were obtained from analysis of the decay of the scattered intensity autocorrelation function and were used to determine apparent hydrodynamic radii via the Stokes-Einstein equation. Kinetic fitting for the degradation of small α-syn PFF seeds was performed with the “SVD-1a + small α-syn PFF” sample using the “single-phase exponential decay function” of GraphPad Prism 10 (GraphPad Software Inc., USA), considering only particle sizes in the range of 1–100 nm with an amplitude > 0.2. […] Protein quantification after centrifugation was performed by incubating identical samples as in the DLS measurements with additional compound and buffer controls in low-binding reaction tubes at 37 °C under quiescent conditions (n = 3). […] Protein quantification of pellet and supernatant was performed using a Micro-BCA kit following the manufacturer’s instructions (Thermo Fisher Scientific, USA). […]

[1] = tested on: α-synA53T–YFP (HEK293T cells); test: Seeded intracellular aggregation in α-synA53T–YFP cells; type: cell-based, human; conditions: day 3; for aggregate-positive cells: transfected, then 30 nM small α-syn PFF seeds
Source text: Fig. 5 SVD-1a inhibits seeded α-syn aggregation in cells. To validate the inhibitory effect of SVD-1a in cells, we used the α-synA53T–YFP cell system, which stably expresses human α-syn with the familial A53T mutation fused to YFP in HEK293T cells and enables fluorescence-based detection of aggregates that show up as highly fluorescent spots within the cells, clearly above background, intracellularly after seeding with small α-syn PFF seeds. In order to avoid interference of the peptide with the uptake of small α-syn PFF seeds, we performed a two-step transfection starting with a first transfection of the peptide and a second transfection with PFFs. […] To quantify the number of cells with aggregates in our images and to avoid experimental bias, we used a fully automated algorithm for image analysis. […] One asterisk denotes p values < 0.05 and three asterisks a p value < 0.001. Error bars indicate standard deviation. […] Treatment with increasing concentrations of SVD-1a, here imaged at 25 µM, led to a concentration-dependent reduction in the number of cells with aggregates (H-J). Panels B, E, and H show nuclei stained with Hoechst 33342. Panels C, F, and I show αSynA53T–YFP fluorescence. Panels D, G, and J show merged images. The scale bar in J represents 100 µm and applies to all panels. The viability of the cells was not reduced by transfection with seeds or in SVD-1a, as shown in Supplementary Fig. 15. Confirmation that highly fluorescent aggregates contain α-syn is shown in Supplementary Fig. 14 by co-immunostaining with syn-211 antibody, anti-α-syn (phospho S129) antibody and 5G4 antibody.
A construct encoding full-length A53T-mutated human α-syn fused with YFP at the C-terminus was synthesized and introduced into the pMK–RQ expression vector (GeneArt; Thermo Fisher Scientific, USA). The α-synA53T–YFP construct was subcloned into the pIRESpuro3 vector (Clontech; Takara Bio, JPN) using NheI (5′) and NotI (3′) restriction sites. HEK293T cells (American Type Culture Collection) were cultured in high-glucose Dulbecco’s modified Eagle’s medium (DMEM; Sigma-Aldrich, USA) supplemented with 10% fetal calf serum (Sigma-Aldrich, USA), and 50 units/ml penicillin as well as 50 μg/ml streptomycin (Sigma-Aldrich, USA). Cells were cultured in a humidified atmosphere of 5% CO2 at 37 °C. Cells plated in DMEM were transfected using Lipofectamine 2000 (Invitrogen; Thermo Fisher Scientific, USA). Stable cells were selected in DMEM containing 1 μg/ml puromycin (EMD Millipore, USA). Monoclonal lines were generated by fluorescence-activated cell sorting of a polyclonal cell population in 96-well plates using a MoFlo XDP cell sorter (Beckman Coulter, USA). Finally, the clonal cell line B5 was selected from among 24 clonal cell lines and is referred to as αSynA53T–YFP cells. Peptides were incubated with 1.5% Lipofectamine 2000 in OptiMEM for 2 h at room temperature. […] On day 3 the cells were imaged with an IN Cell Analyzer 6500HS System (Cytiva, USA) using the blue and green fluorescence channel, and analyzed using IN Carta Image Analysis Software (Cytiva, USA) after an algorithm was established to identify intracellular aggregates in living cells. For each condition, we used four wells and took 16 images per well, which were analyzed by a fully automated algorithm to avoid bias. […]

CC[C@@H](C)[C@@H](NC(=O)[C@@H](Cc1c[nH]cn1)NC(=O)[C@@H](CCC(=O)O)NC(=O)[C@@H](CCC(N)=O)NC(=O)[C@@H](Cc1c[nH]c2ccccc12)NC(=O)[C@@H](Cc1ccc(O)cc1)NC(=O)[C@H](NC(=O)[C@@H](CCC(=O)O)NC(=O)[C@@H](Cc1c[nH]cn1)NC(=O)[C@H](NC(=O)[C@H]1CCCN1C(=O)[C@@H](CC(C)C)NC(=O)[C@H](N)CCCNC(=N)N)[C@H](C)O)[C@H](C)O)C(=O)N[C@H](Cc1c[nH]c2ccccc12)C(=O)N[C@H](Cc1c[nH]cn1)C(=O)N[C@H](C)C(=O)N[C@H](CCCNC(=N)N)C(=O)N[C@H](CCCNC(=N)N)C(=O)N[C@H](CCCNC(=N)N)C(=O)N[C@H](CCCNC(=N)N)C(=O)N[C@H](CCCNC(=N)N)C(N)=O [SVD-1a] (H-[dR][dL][dP][dT][dH][dE][dT][dY][dW][dQ][dE][dH][dI][dW][dH][dA][dR][dR][dR][dR][dR]-NH2)
precipitation of small α-syn PFF seeds (small α-syn PFF seeds): did not lead to precipitation of these species
aggregate-positive cells ([1]; 5 µM peptide): 64%
aggregate-positive cells ([1]; 25 µM peptide): 57%
inhibition of intracellular seeded α-syn aggregation ([1]; peptide transfection, then 30 nM PFF seeds): inhibited α-syn aggregation in αSynA53T–YFP cells in a dose-dependent manner
